Assay results taken from US20070060638A1, “Methods and therapies for potentiating therapeutic activities of a cannabinoid receptor agonist via administration of a cannabinoid receptor antagonist” (priority 2005, published 2007).

Legend:
[1] = test system: Male Long-Evans rats (tail flick, thermal nociception); experiment: Rat tail flick test, single intravenous injection; type: in vivo; details: for tail flick latency (MPE) compared with same dose of WIN alone: i.v. single injection
Experimental: (§1) Male Long-Evans rats (N=175) from Charles River (Montreal, QC, Canada) ranging from 230-380 grams, were housed in polycarbonate cages in pairs and given free access to food (Lab Diet, PMI Nutrition International, Inc., Brentwood, Mo., USA) and water. Animal quarters were kept on a reverse light-dark cycle (lights on from 7 pm to 7 am) and maintained at 22±2° C. and 45±20% relative humidity. Animals were given a minimum of 3 days prior to the experiment to acclimatize to the animal quarters.
(§2) All injections were administered in a volume of 1 ml/kg. All chemicals were dissolved in 5% dimethyl sulfoxide (DMSO; Sigma, Oakville, ON, Canada), 0.3% polyoxyethylenesorbitan monooleate (Tween® 80; Sigma, Oakville, ON, Canada) and 94.7% saline vehicle, and administered intravenously in the posterior ⅓ of the lateral tail vein.
For single injection testing, vehicle alone was used as a control injection (n=8).
(§3) The tail flick apparatus consisted of a projection lamp that creates radiant heat located just below the animal-testing surface (D'Amour, E. E. and Smith, D. L. J. Pharmacol. Exp. Ther. 1941 72:74-79). The light from the lamp projected through a small hole in the testing surface and was aimed at a photocell located 25 cm above the testing surface. A digital timer, connected to the apparatus, started when the heat source was activated. When the animal flicked its tail away from the heat source, the light from the projection lamp activated the photocell, simultaneously stopping the timer and turning off the lamp. The heat intensity was calibrated to result in baseline tail flick latencies of 2-3 seconds and a 10 second cutoff was used to minimize tissue damage.
Nociceptive reflexes to a thermal stimulus were tested using the tail flick analgesia meter. This apparatus focuses a hot beam on the animal's tail. The time it takes for the rat to flick its tail away from the heat source is a measure of pain; the longer the animal leaves its tail on the hotspot, the greater the degree of pain relief. On the day prior to tail flick testing, animals were handled on the tail flick apparatus for 5-10 minutes to reduce stress-induced analgesia (Kelly, S. J. and Franklin, K. B., Neuropharmacology 1985 24:1019-1025; Terman et al., Science 1984 226:1270-1277). For single injection tested groups, animals were restrained in a small towel and a baseline tail flick latency was measured. Following the baseline measure, animals were given a drug injection and tail flick latencies were assessed every 10 minutes for 90 minutes. For the repeated injection groups, animals were given one drug injection every day for seven days. Prior to the first injection, a baseline tail flick latency was measured. Following this measure, animals were given a drug injection and tail flick latencies were assessed 10 minutes post-injection. […] Post injection tail flick latencies were assessed on days 1, 3, 5, and 7. For all animals, tail flick latencies were converted into a percent of maximal possible effect (MPE) using the equation: MPE=[(post-injection latency−baseline latency)/(10 s cutoff−baseline latency)]×100
(§4) Separate two-way repeated measure ANOVAs were performed on the single injection groups, and repeated injection groups (see Example 2). Post-injection time (10-90 minutes for single injection groups) or day of injection (1-7 days for the repeated injection groups) were the within-subjects factors and drug group was the between-subjects factor. Whenever there were violations of sphericity, Huynh-Feldt corrections to the within-group degrees of freedom were reported. Because many drug group comparisons were irrelevant, a priori multiple comparisons were used to analyze the main drug effect using the Dunn's critical t-ratio. A corrected α of 0.005 was used for the single injection groups because there were 8 comparisons, and a corrected α of 0.01 was used for the repeated injection groups because there were 4 comparisons.

[2] = test system: Male Long-Evans rats (tail flick, thermal nociception); experiment: Rat tail flick test, repeated daily injections for 7 days (tolerance); type: in vivo; details: for tail flick latency thresholds compared with WIN alone: i.v. daily for 7 days
Experimental: as §1, §2
For repeated injection testing, vehicle alone was used as a control injection (n=8). […] The control group received 1.1 ng/kg ultra-low dose of SR alone.
as §3
Nociceptive reflexes to a thermal stimulus were tested using the tail flick analgesia meter. This apparatus focuses a hot beam on the animal's tail. The time it takes for the rat to flick its tail away from the heat source is a measure of pain; the longer the animal leaves its tail on the hotspot, the greater the degree of pain relief. On the day prior to tail flick testing, animals were handled on the tail flick apparatus for 5-10 minutes to reduce stress-induced analgesia (Kelly, S. J. and Franklin, K. B., Neuropharmacology 1985 24:1019-1025; Terman et al., Science 1984 226:1270-1277). For single injection tested groups, animals were restrained in a small towel and a baseline tail flick latency was measured. Following the baseline measure, animals were given a drug injection and tail flick latencies were assessed every 10 minutes for 90 minutes. For the repeated injection groups, animals were given one drug injection every day for seven days. Prior to the first injection, a baseline tail flick latency was measured. Following this measure, animals were given a drug injection and tail flick latencies were assessed 10 minutes post-injection. This time point was selected because it is the point at which maximal WIN-induced antinociception is detected in this protocol. Post injection tail flick latencies were assessed on days 1, 3, 5, and 7. For all animals, tail flick latencies were converted into a percent of maximal possible effect (MPE) using the equation: MPE=[(post-injection latency−baseline latency)/(10 s cutoff−baseline latency)]×100
as §4, with “A corrected α of 0.005 was used for the single injection groups because there were 8 comparisons, and a corrected α of 0.01 was used for the repeated injection groups because there were 4 comparisons.” left out

Compound | tail flick latency (MPE) compared with same dose of WIN alone ([1]; SR 0.055 ng/kg mixed with WIN 0.0625 mg/kg, t(14)=3.28) | tail flick latency (MPE) compared with same dose of WIN alone ([1]; SR 0.083 ng/kg with WIN 0.09375 mg/kg, t(14)=8.16, P≦0.005) | tail flick latency (MPE) compared with same dose of WIN alone ([1]; SR 0.55 ng/kg in combination with WIN 0.0625 mg/kg, t(14)=6.72, P≦0.005) | tail flick latency (MPE) compared with same dose of WIN alone ([1]; SR 0.83 ng/kg with WIN 0.09375 mg/kg, t(14)=9.63, P≦0.005) | antinociceptive properties of WIN in rat tail flick test (FIG. 1A, 1B) ([1]; ultra-low dose SR (0.55, 0.055, 0.83, 0.083 ng/kg) with WIN (0.0625 or 0.09375 mg/kg), single i.v. injection) | tail flick latency thresholds compared with WIN alone ([2]; SR 0.11 ng/kg with WIN 0.125 mg/kg, t(14)=14.35, P≦0.01) | tail flick latency thresholds compared with WIN alone ([2]; SR 1.1 ng/kg with WIN 0.125 mg/kg, t(14)=9.77, P≦0.01) | prevention of WIN-induced tolerance / enhancement of antinociception ([2]; SR to WIN dose ratio 1:100,000) | prevention of WIN-induced tolerance / enhancement of antinociception ([2]; SR to WIN dose ratio 1:1,000,000, slightly (although not significant) better at preventing tolerance) | development of tolerance to the analgesic action of WIN in rat tail flick test (FIG. 2) ([2]; daily ultra-low dose SR (1.1 or 0.11 ng/kg) with WIN 0.125 mg/kg, i.v.) | degree of antinociception in the tail flick test ([1]; rat, in vivo) | tail flick latency (MPE) compared with vehicle ([1]; rat, in vivo) | tail flick latency compared with vehicle ([2]; WIN 0.125 mg/kg i.v. alone, daily for 7 days, tested days 1, 3, 5, 7, t(14)=10.44, P≦0.01) | degree of antinociception in the tail flick test ([2]; WIN alone at 0.125 mg/kg i.v.) | time point post-injection of maximal WIN-induced antinociception ([2]; tail flick, i.v.) [min]
Cc1c(C(=O)NN2CCCCC2)nn(-c2ccc(Cl)cc2Cl)c1-c1ccc(Cl)cc1 [SR, N-(Piperidin-1-yl)-5-(4-chlorophenyl)-1-(2,4-dichlorophenyl)-4-methyl-1H-pyrazole-3-carboxamide] | no difference | longer tail flick latencies | longer tail flick latencies | longer tail flick latencies | enhanced | greater tail flick latency thresholds | greater tail flick latency thresholds | effective | effective | prevented the development of tolerance |  |  |  |  | 
CS(=O)(=O)O.Cc1c(C(=O)c2cccc3ccccc23)c2cccc3c2n1[C@H](CN1CCOCC1)CO3 [WIN, (R)-(+)-[2,3-Dihydro-5-methyl-3-(4-morpholinylmethyl)pyrrolo[1,2,3-de]-1,4-benzoxazin-6-yl]-1-naphthalenylmethanone mesylate] |  |  |  |  |  |  |  |  |  |  | sub-maximal antinociception | no difference | greater tail flick latencies | maximal antinociception | 10
